These results are taken from ChEMBL document CHEMBL1201862, “PubChem BioAssay data set” (2004).

Values joined by “and” are separate entries in the source; they are usually repeats but may differ in a detail not shown here. Equal values may be shown once.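 48-hour exposure; five concentrations; linearly interpolated endpoints. GI50 is the concentration that inhibits growth by half.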 Active and inactive are the calls of the source. No stated cut-off is given here; in the data, active = GI50 up to about 1.1 µM and inactive = higher. Where only a bound is given, the exact number is not on record here.

Among the test systems are COLO 205; HCT-116; HCT-15; HOP-62; HT-29; Hs-578T; K562; KM12; MOLT-4; NCI-H522; OVCAR-3; OVCAR-8; PC-3; SF-539; SK-MEL-2; SW-620; T47D; TK-10; UACC-257; HOP-92.
Holding throughout (test): NCI-60 cell line screen, 48 h

Take `O=C(CCCn1ccnc1[N+](=O)[O-])NCCn1ccnc1`: the GI50 in the test with COLO 205 is 67 µM (inactive); in the test on HCT-116 it was > 100 µM (inactive); with HCT-15, > 100 µM; in the test with HOP-62, > 100 µM (inactive); in the test on HT-29, > 100 µM (inactive); in the test on Hs-578T, > 100 µM (inactive). Besides, the GI50 in the test with K562, in the test with KM12, in the test on MOLT-4, in the test with NCI-H522, in the test on OVCAR-3 and with OVCAR-8 was > 100 µM (inactive) throughout. For the same compound, the GI50 with PC-3, in the test on SF-539, with SK-MEL-2, in the test on SW-620, in the test with T47D and with TK-10 was > 100 µM (inactive) throughout. Besides, in the test with UACC-257, the GI50 is > 100 µM (inactive).

For the compound `Cc1ccc(S(=O)(=O)SC/C=C\CSS(=O)(=O)c2ccc(C)cc2)cc1`, the GI50 in the test with HOP-62 was 49.2 µM (inactive) and 35.9 µM (inactive); with HOP-92, 14.4 µM (inactive) and 16.2 µM (inactive); in the test with Hs-578T, 67 µM (inactive); in the test on KM12, 14.7 µM (inactive) and 17.2 µM (inactive); in the test on OVCAR-3 it was 24.4 µM (inactive) and 16 µM (inactive); in the test on OVCAR-8, 18.9 µM (inactive) and 13.3 µM (inactive). For the same compound, the GI50 is 19.9 µM (inactive) in the test with PC-3, 47 µM (inactive) in the test with SK-MEL-2 and 39.3 µM (inactive) in the test on T47D.

Turning to `CC1CCC/C1=C(/I)C(=O)c1ccccc1` (configuration not stated), the GI50 with COLO 205 is > 100 µM (inactive); in the test with HCT-116, 36.6 µM (inactive); in the test on HCT-15 it was > 100 µM; in the test on HOP-62, > 100 µM (inactive); in the test on HT-29 it was 48 µM (inactive); in the test with Hs-578T, > 100 µM (inactive). Further, the GI50 in the test with K562 was 34.4 µM (inactive); in the test with KM12, 25.4 µM (inactive); with MOLT-4 it was 19.2 µM (inactive); in the test on NCI-H522, 41.7 µM (inactive); with OVCAR-8, > 100 µM (inactive); with PC-3 it was > 100 µM (inactive). Moreover, the GI50 in the test with SF-539 is > 100 µM (inactive); with SK-MEL-2, > 100 µM (inactive); in the test on SW-620, 53.1 µM (inactive); in the test on T47D, > 100 µM (inactive); in the test with TK-10 it was > 100 µM (inactive); in the test with UACC-257, 89.9 µM (inactive).

Consider `CC1(C)CC(=O)c2c(nc3c(ccc4ccccc43)c2-c2ccc(NC(=O)CCCCC(=O)Nc3ccc(-c4c5c(nc6c4ccc4ccccc46)CC(C)(C)CC5=O)cc3)cc2)C1`, for which the GI50 in the test with COLO 205 is 26.7 µM (inactive); with HCT-116, 23.9 µM (inactive); in the test on HCT-15, 27.7 µM; with HOP-62, 32.7 µM (inactive); in the test with HT-29, 22.5 µM (inactive); with Hs-578T, 32.1 µM (inactive). Further, the GI50 in the test with K562 is 30.8 µM (inactive); in the test with KM12, 20.7 µM (inactive); in the test with MOLT-4 it was 13.7 µM (inactive); in the test with NCI-H522 it was 29.5 µM (inactive); in the test with OVCAR-3 it was 25.6 µM (inactive); in the test with OVCAR-8 it was 26.1 µM (inactive). Further, the GI50 with PC-3 is 27.4 µM (inactive); in the test on SF-539, 20.6 µM (inactive); with SK-MEL-2 it was 33 µM (inactive); with SW-620, 38.6 µM (inactive); in the test on T47D, 22.6 µM (inactive); in the test on TK-10, 48.6 µM (inactive). Further, the GI50 in the test with UACC-257 was 39.2 µM (inactive).

Regarding `CN(C)CCNC(=O)Cn1cnc2cccc([N+](=O)[O-])c2c1=O`, the GI50 in the test on COLO 205 was > 100 µM (inactive); with HCT-116, > 100 µM (inactive); with HCT-15, > 100 µM; with HOP-62, > 100 µM (inactive); in the test with HT-29, > 100 µM (inactive); in the test on Hs-578T, > 100 µM (inactive). Further, the GI50 in the test with K562, with KM12, in the test on MOLT-4, in the test on NCI-H522, in the test on OVCAR-3 and in the test on PC-3 was > 100 µM (inactive) throughout. Moreover, the GI50 with SF-539, with SK-MEL-2, in the test on SW-620, with T47D, in the test with TK-10 and with UACC-257 was > 100 µM (inactive) each time.

In the case of `CC(=O)NC1C(OCc2ccccc2)OC(CO)C(O)C1OC(C)C(=O)NC(C(=O)NC(CCC(=O)NCCCC(=O)Nc1ccc2c(c1)CN1C(=O)c3ccccc3C1=N2)C(N)=O)C(C)C` (configuration not stated), the GI50 was > 100 µM (inactive) in the test on COLO 205; > 100 µM (inactive) in the test with HCT-116; > 100 µM with HCT-15; > 100 µM (inactive) with HOP-62; > 100 µM (inactive) in the test with HOP-92; > 100 µM (inactive) with HT-29. Also, the GI50 in the test with Hs-578T, in the test on K562, with KM12, in the test on MOLT-4, in the test on OVCAR-3 and with PC-3 was > 100 µM (inactive) in each case. For the same compound, the GI50 in the test with SF-539, with SK-MEL-2, in the test with SW-620, in the test with T47D, in the test on TK-10 and in the test with UACC-257 was > 100 µM (inactive) throughout.

`CCNC(=S)N/N=C/c1cc([N+](=O)[O-])ccc1O`: the GI50 is 28.3 µM (inactive) with COLO 205; 16.9 µM (inactive) in the test on HCT-116; 11.6 µM in the test with HCT-15; 32.7 µM (inactive) in the test with HOP-62; 41.8 µM (inactive) in the test on HT-29; 70.5 µM (inactive) in the test with Hs-578T. Besides, the GI50 is 20.6 µM (inactive) in the test with K562; 23.8 µM (inactive) with KM12; 8.73 µM (inactive) in the test with MOLT-4; 21.5 µM (inactive) in the test with NCI-H522; 18 µM (inactive) in the test with OVCAR-8; 28.3 µM (inactive) in the test on PC-3. For the same compound, the GI50 was 35.4 µM (inactive) with SF-539; > 100 µM (inactive) in the test with SK-MEL-2; 40.5 µM (inactive) in the test with SW-620; 19.9 µM (inactive) in the test with T47D; 16.2 µM (inactive) with TK-10; 24.6 µM (inactive) with UACC-257.

Take `COC(=O)Cn1cnc2c(Cl)nc(Nc3ccccc3)nc21`: the GI50 is 59.6 µM (inactive) in the test with COLO 205; 35.5 µM (inactive) in the test on HCT-116; 21.4 µM in the test on HCT-15; > 100 µM (inactive) in the test on HOP-62; > 100 µM (inactive) with HT-29; 20.9 µM (inactive) with Hs-578T. For the same compound, the GI50 was 10.6 µM (inactive) in the test on K562; > 100 µM (inactive) in the test on KM12; 26.5 µM (inactive) in the test with MOLT-4; 21.1 µM (inactive) with OVCAR-3; 25.9 µM (inactive) with OVCAR-8; 20.7 µM (inactive) in the test on PC-3. For the same compound, the GI50 in the test on SF-539 is > 100 µM (inactive); in the test on SK-MEL-2, 16.4 µM (inactive); with SW-620, 65 µM (inactive); in the test with T47D, > 100 µM (inactive); in the test with TK-10 it was > 100 µM (inactive); in the test on UACC-257 it was 68.7 µM (inactive).

For `Cn1c2ccccc2n2c3ncccc3/c(=N/CCCC(=O)O)c(C#N)c12`, the GI50 is > 100 µM (inactive) in the test on COLO 205; > 100 µM (inactive) in the test with HCT-116; > 100 µM in the test on HCT-15; > 100 µM (inactive) with HOP-62; > 100 µM (inactive) in the test on HT-29; > 100 µM (inactive) in the test on Hs-578T. In addition, the GI50 with K562, in the test with KM12, in the test with MOLT-4, in the test with NCI-H522, in the test on OVCAR-3 and in the test with OVCAR-8 was > 100 µM (inactive) each time. Moreover, the GI50 in the test with PC-3, in the test with SK-MEL-2, in the test with SW-620 and with T47D was > 100 µM (inactive) each time.

As to `C1=CC2(C=CC13O[C@H](C1CCCCC1)[C@@H](C1CCCCC1)O3)O[C@H](C1CCCCC1)[C@@H](C1CCCCC1)O2`, the GI50 in the test with COLO 205 was > 50 µM (inactive); in the test on HCT-116, > 50 µM (inactive); in the test with HCT-15 it was > 50 µM; with HOP-62, > 50 µM (inactive); in the test on HT-29, > 50 µM (inactive); in the test with Hs-578T, > 50 µM (inactive). Moreover, the GI50 with K562, in the test on KM12, with MOLT-4, in the test with OVCAR-3, with OVCAR-8 and with PC-3 was > 50 µM (inactive) in each case. Moreover, the GI50 in the test on SF-539, in the test with SK-MEL-2, in the test with SW-620, in the test on T47D, with TK-10 and in the test on UACC-257 was > 50 µM (inactive) each time.

`O=c1[nH]c(=O)n(C2CC(O)C(CO)O2)cc1OCc1ccccc1` (configuration not stated): the GI50 was > 100 µM (inactive) in the test with COLO 205; > 100 µM (inactive) in the test with HCT-116; > 100 µM in the test on HCT-15; > 100 µM (inactive) with HOP-62; > 100 µM (inactive) with HT-29; > 100 µM (inactive) in the test with Hs-578T. The GI50 in the test on K562, in the test with KM12, in the test with MOLT-4, in the test on NCI-H522, with OVCAR-3 and with OVCAR-8 was > 100 µM (inactive) in each case. In addition, the GI50 with PC-3, with T47D, with TK-10 and in the test on UACC-257 was > 100 µM (inactive) each time.
